Literature values in patent US20200171025A1, “PHARMACEUTICAL COMPOSITION COMPRISING BREXPIPRAZOLE AND PROCESS FOR PREPARATION THEREOF” (priority 2018, published 2020).

Conditions: as per BCS

In the case of `O=c1ccc2ccc(OCCCCN3CCN(c4cccc5sccc45)CC3)cc2[nH]1` [Brexpiprazole, 7-{4-[4-(1-Benzothiophen-4-yl)piperazin-1-yl]butoxy}quinolin-2(1H)-one], the Aqueous solubility is given as “low aqueous solubility” and the Permeability is given as “high permeability”.
